The results in this text go back to patent US10179790B2 (THOMAS HELLEDAYS STIFTELSE FOR MEDICINSK FORSKNING, priority 2014, dated 2019).

The term IC50 denotes the concentration at which inhibition is half-maximal.

The target in one assay is MTH1 (Homo sapiens, UniProt P36639). The experiment in a line: MTH1 enzymatic assay and IC50 value determination (malachite green, 96- and 384-well format). In kind it is biochemical. The following applies: hydrolysis of dGTP (100 μM), MTH1 6 nM, pyrophosphatase-coupled malachite green, 15 minutes at 22° C. Here is the method: MTH1 Enzymatic Assay and IC50 Value Determination
MTH1 catalyzes the hydrolysis of dGTP to dGMP and PPi. By coupling the reaction to pyrophosphatase added in excess PPi is converted to Pi that can be detected by using the malachite green assay reagent. Two different formats were used for IC50 determinations in the enzymatic assay, 96- and 384-well format. 96-Well Method:
Briefly, the compound to be analyzed is diluted in DMSO in a 1:3 dilution series generating 12 different compound concentrations giving a final DMSO concentration of 1% in the assay well. MTH1 diluted in assay buffer (100 mM Tris-acetate, 40 mM NaCl, 10 mM magnesium acetate, 1 mM DTT and 0.005% Tween 20) fortified with E. coli pyrophosphatase (0.2 U/ml) is added to a final concentration of 6 nM. dGTP diluted in assay buffer is added to a final concentration of 100 μM. The reaction mixture is incubated for 15 minutes at 22° C. To 100 μl reaction mixture, 25 μl Malachite green assay regent (0.095% Malachite green in 17% H2SO4, 1.5% Ammonium molybdate, 0.17% Tween 20) is added, followed by incubation with shaking for 15 minutes at 22° C. The absorbance of the assay plate is read at 630 nm using a Hidex Sense Multilabel plate reader. The IC50 value is determined by fitting a dose response curve to the data points using nonlinear regression analysis and the equation Y=Bottom+(Top−Bottom)/(1+10^((Log IC50−X)*HillSlope)), where Y is the read absorbance at 630 nm and X is log [compound].
The compounds to be tested are nano-dispensed, in 11 concentrations, directly in assay plates, with a final DMSO concentration <1%. The protocol and the reaction mixture are the same as for the 96-well assay, with a total reaction volume of 50 μl/well to which 10 μl of Malachite green reagent is added. All additions to the assay plates are made with multidrop.

The next assay concerns cancer cell. Put plainly: Cell viability assay (resazurin). The format is cell-based. The following applies: 72 h; 3 days with compound, resazurin fluorescence; cell line not named. The protocol: The utility of the compounds of the present invention can be illustrated, for example, by their activity in vitro in the cancer cell clonogenic and/or viability assay described below. The link between activity in tumor cell clonogenic assay and anti-tumor activity in the clinical setting has been well established in the art (e.g. see ref Silverstini et al Stem Cells 1993, 11(6), 258-35).
Cells are seeded into 96 well plates (1000-3000 cells/well) in DMEM GlutaMAX™ or other suitable media dependent on cell line and incubated overnight in 5% CO2, 37° C. Thereafter cells are treated with compound or vehicle and left in incubator for 3 days until staining with resazurin. Cells are incubated in resazurin (diluted in suitable media) at 37° C. for 2 hours before measuring the fluorescence (Ex544/Em590).
The compounds to be tested are nano-dispensed in 11 concentrations, directly in 384-well cell plates, with a final DMSO concentration <1%. Cells are seeded in cell plates, pre-dispensed with compounds, 50 μl/well (600-1200 cells/well). After 3 days culture in 5% CO2, 37° C., resazurin diluted in PBS is added, 10 μl/well, and cells are incubated 3 hours before measuring fluorescence (Ex544/Em590).
(In general: Alamar Blue is a resazurin reagent that responds to reducing activity.)

As to `Cc1c(Cl)cccc1-c1cc(NCCc2ccc(S(C)(=O)=O)cc2)nc(N)n1` [Example 1, 6-(3-chloro-2-methylphenyl)-4-N-[2-(4-methanesulfonylphenyl)ethyl]pyrimidine-2,4-diamine], the IC50 at MTH1 was below 200 nM; in the assay on cancer cell, below 500 nM.
`Cc1ccc(S(=O)(=O)N2CC=C(c3cc(NCCc4ccc(S(C)(=O)=O)cc4)nc(N)n3)CC2)cc1` [Example 130, 4-N-[2-(4-methanesulfonylphenyl)ethyl]-6-[1-(4-methylbenzenesulfonyl)-1,2,3,6-tetrahydropyridin-4-yl]pyrimidine-2,4-diamine]: the IC50 against MTH1 was below 200 nM.
Still for that read-out and setting: the value for `CC(C)(C)OC(=O)N1CC=C(c2cc(NCCc3ccc(S(N)(=O)=O)cc3)nc(N)n2)CC1` [Example 131, tert-butyl 4-(2-amino-6-{[2-(4-sulfamoylphenyl)ethyl]amino}pyrimidin-4-yl)-1,2,3,6-tetrahydropyridine-1-carboxylate] was below 200 nM; that for `Nc1nc(NCCc2ccc(S(N)(=O)=O)cc2)cc(C2=CCCCCC2)n1` [Example 132, 4-(2-{[2-amino-6-(cyclohept-1-en-1-yl)pyrimidin-4-yl]amino}ethyl)benzene-1-sulfonamide] was below 200 nM.
On the same count and under the same terms, under `Nc1nc(NCCc2ccc(S(N)(=O)=O)cc2)cc(C2CCCCCC2)n1` [Example 134, 4-{2-[(2-amino-6-cycloheptylpyrimidin-4-yl)amino]ethyl}benzene-1-sulfonamide] stands below 200 nM; under `CC(=O)N1CC=C(c2cc(NCCc3ccc(S(N)(=O)=O)cc3)nc(N)n2)CC1` [Example 135, 4-(2-{[6-(1-acetyl-1,2,3,6-tetrahydropyridin-4-yl)-2-aminopyrimidin-4-yl]amino}ethyl)benzene-1-sulfonamide], below 200 nM; under `CC(C)C(=O)N1CC=C(c2cc(NCCc3ccc(S(N)(=O)=O)cc3)nc(N)n2)CC1` [Example 136, 4-[2-({2-amino-6-[1-(2-methylpropanoyl)-1,2,3,6-tetrahydropyridin-4-yl]pyrimidin-4-yl}amino)ethyl]benzene-1-sulfonamide], below 200 nM.
Same read-out and setting: under `CS(=O)(=O)N1CC=C(c2cc(NCCc3ccc(S(N)(=O)=O)cc3)nc(N)n2)CC1` [Example 137, 4-(2-{[2-amino-6-(1-methanesulfonyl-1,2,3,6-tetrahydropyridin-4-yl)pyrimidin-4-yl]amino}ethyl)benzene-1-sulfonamide] stands below 200 nM.
As for `Nc1nc(NCCc2ccc(S(N)(=O)=O)cc2)cc(C2=CCN(C(=O)c3ccno3)CC2)n1` [Example 138, 4-[2-({2-amino-6-[1-(1,2-oxazole-5-carbonyl)-1,2,3,6-tetrahydropyridin-4-yl]pyrimidin-4-yl}amino)ethyl]benzene-1-sulfonamide], the concentration for half-maximal inhibition (IC50) against MTH1 was below 200 nM.
Still for that read-out and setting: under `Nc1nc(NCCc2ccc(S(N)(=O)=O)cc2)cc(C2=CCN(C(=O)C3CCCC3)CC2)n1` [Example 139, 4-(2-{[2-amino-6-(1-cyclopentanecarbonyl-1,2,3,6-tetrahydropyridin-4-yl)pyrimidin-4-yl]amino}ethyl)benzene-1-sulfonamide] stands below 200 nM; under `Nc1nc(NCCc2ccc(S(N)(=O)=O)cc2)cc(C2=CCN(C(=O)CC3CCCC3)CC2)n1` [Example 140, 4-[2-({2-amino-6-[1-(2-cyclopentylacetyl)-1,2,3,6-tetrahydropyridin-4-yl]pyrimidin-4-yl}amino)ethyl]benzene-1-sulfonamide], below 200 nM; under `Cc1ccc(C(=O)N2CC=C(c3cc(NCCc4ccc(S(N)(=O)=O)cc4)nc(N)n3)CC2)cc1` [Example 141, 4-[2-({2-amino-6-[1-(4-methylbenzoyl)-1,2,3,6-tetrahydropyridin-4-yl]pyrimidin-4-yl}amino)ethyl]benzene-1-sulfonamide], below 200 nM.
On the same count and under the same terms, under `Cc1c(Cl)cccc1-c1cc(NCCNc2ccc(C(N)=O)cn2)nc(N)n1` [Example 147] stands below 200 nM; under `Cc1c(Cl)cccc1-c1cc(NCCNc2ccc(NC(=O)NC(C)(C)C)cn2)nc(N)n1` [Example 156, 1-[6-[2-[[2-amino-6-(3-chloro-2-methyl-phenyl)pyrimidin-4-yl]amino]ethylamino]-3-pyridyl]-3-tert-butyl-urea], below 200 nM.
On the same count and under the same terms, the value for `Cc1c(Cl)cccc1-c1cc(NCCNc2ccc(NC(=O)OC(C)(C)C)cn2)nc(N)n1` [Example 157, tert-butyl N-[6-[2-[[2-amino-6-(3-chloro-2-methyl-phenyl)pyrimidin-4-yl]amino]ethylamino]-3-pyridyl]carbamate] was below 200 nM; that for `Cc1c(Cl)cccc1-c1cc(NCCNc2nc(N)nc(N)n2)nc(N)n1` [Example 158, N2-[2-[[2-amino-6-(3-chloro-2-methyl-phenyl)pyrimidin-4-yl]amino]ethyl]-1,3,5-triazine-2,4,6-triamine] was below 200 nM.
`Cc1c(Cl)cccc1-c1cc(NCCc2ccc(C(N)=O)cc2F)nc(N)n1` [Example 162, 4-[2-[[2-amino-6-(3-chloro-2-methyl-phenyl)pyrimidin-4-yl]amino]ethyl]-3-fluoro-benzamide] registered an IC50 against MTH1 below 200 nM.
Same read-out and setting: the value for `Cc1c(Cl)cccc1-c1cc(NCCSCc2ccc(CN(C)C)o2)nc(N)n1` [Example 175, 6-(3-chloro-2-methyl-phenyl)-N4-[2-[[5-[(dimethylamino)methyl]-2-furyl]methylsulfanyl]ethyl]pyrimidine-2,4-diamine] was below 200 nM; that for `Cc1c(Cl)cccc1-c1cc(NCCc2cccc(NC(=N)N)c2)nc(N)n1` [Example 179, 1-[3-[2-[[2-amino-6-(3-chloro-2-methyl-phenyl)pyrimidin-4-yl]amino]ethyl]phenyl]guanidine] was below 200 nM.
For the compound `Cc1c(Cl)cccc1-c1cc(NCC#CCSc2cccc(C(=O)O)c2)nc(N)n1` [Example 193], the IC50 against MTH1 is below 200 nM.
On the same count and under the same terms, the value for `Cc1c(-c2cc(NCCc3ccc(S(N)(=O)=O)cc3)nc(N)n2)cccc1C(F)(F)F` [Example 197, 4-[2-({2-amino-6-[2-methyl-3-(trifluoromethyl)phenyl]pyrimidin-4-yl}amino)ethyl]benzene-1-sulfonamide] was below 200 nM; that for `Cc1c(Cl)cccc1-c1cc(NCCOc2ccc(C(F)(F)F)cn2)nc(N)n1` [Example 199, 6-(3-chloro-2-methylphenyl)-N4-(2-{[5-(trifluoromethyl)pyridin-2-yl]oxy}ethyl)pyrimidine-2,4-diamine] was below 200 nM.
On MTH1, `Cc1c(Cl)cccc1-c1cc(NCCOc2ccc(-c3nn[nH]n3)cc2)nc(N)n1` [Example 202, 6-(3-chloro-2-methylphenyl)-N4-{2-[4-(2H-1,2,3,4-tetrazol-5-yl)phenoxy]ethyl}pyrimidine-2,4-diamine] displayed an IC50 below 200 nM.
Same read-out and setting: the value for `Cc1c(Cl)cccc1-c1cc(NCC(O)c2ccc(S(C)(=O)=O)cc2)nc(N)n1` (stereo not shown) [Example 215, 2-(2-amino-6-(3-chloro-2-methylphenyl)pyrimidin-4-ylamino)-1-(4-(methylsulfonyl)phenyl)ethanol] was below 200 nM.
In turn, `Cc1c(Cl)cccc1-c1cc(NCC(O)c2ccc(S(N)(=O)=O)cc2)nc(N)n1` (stereo not shown) [Example 216, 4-(2-(2-Amino-6-(3-chloro-2-methylphenyl)pyrimidin-4-ylamino)-1-hydroxyethyl)benzenesulfonamide] displayed an IC50 against MTH1 below 200 nM.
`CS(=O)(=O)c1ccc(CCNc2cc(-c3cccc(Cl)c3CO)nc(N)n2)cc1` [Example 217, (2-(2-Amino-6-(4-(methylsulfonyl)phenethylamino)pyrimidin-4-yl)-6-chlorophenyl)methanol] returned a half-inhibitory concentration (IC50) on MTH1 below 200 nM.
Turning to `Nc1nc(NCCc2ccc(S(N)(=O)=O)cc2)cc(-c2cccc(Cl)c2CO)n1` [Example 218, 4-(2-(2-Amino-6-(3-chloro-2-(hydroxymethyl)phenyl)pyrimidin-4-ylamino)ethyl)benzenesulfonamide], the IC50 against MTH1 is below 200 nM.
